The subject of one assay is T-47D. In words: cells. The arrangement: MTT cell viability assay, antiproliferative IC50 in T-47D breast cancer cells. The settings on record: Homo sapiens, T47D, 48 h. Here is the method:
(§1) To assess the effect of MAO-AIs on the survival and proliferation of breast cancer cells, MTT colorimetric analysis was performed as previously described. MDA-MB-231 and T47D cells were seeded into a 96-well plate, at a different seeding density per well depending on proliferation ability, doubling time, and target time of treatment. Then, cells were maintained at 37°C in a humidified 5% CO2 atmosphere. Cell viability was calculated as follows: cell viability (%) = [(optical density of viable cells in the test group)/optical density of viable cells in the negative control group] × 100%. Experiments were run at least 2-3 times independently. […] The ratio of IC50 for each drug alone guided the selection of an appropriate combination ratio. As described earlier, the MTT test was used to determine cell viability after treatment time elapsed (48 hours). CompuSyn software (ComboSyn Inc., Paramus, NJ, USA) was used to determine the combination index (CI), which is based on Chou-Talalay's combination index theorem, and its formula is the sum of the ratio of the dose of each drug in the compound to the dose when used alone when the combination and compound produce 50% efficacy. CI values < 1, =1, and > 1 indicate synergism, additive, and antagonistic effects, respectively, as shown in Equation (1). In this study, MTT assay was performed after exposing MDA-MB-231 and T-47d cell lines to increasing concentrations of MAO-A inhibitors for either 24, 48, or 72 h. […] Breast cancer cell lines, T-47D and MDA-MB-231 cells, were purchased from American Type Culture Collection (ATCC, USA). Cells were cultured in DMEM high glucose culture medium supplemented with 10% fetal bovine serum (FBS), 2 mM L-glutamine, 100 U/mL penicillin, and 0.1 mg/mL streptomycin. Cells were maintained in a humidified controlled temperature incubator set at 37°C, 95% humidity, and 5% CO2.

In the next assay the test system is MDA-MB-231. In words: cells. Details: MTT cell viability assay, antiproliferative IC50 in MDA-MB-231 breast cancer cells. The settings on record: Homo sapiens, MDA-MB-231, 48 h. Here is the method:
as §1

In article PMC10569896, “Molecular Investigation of the Antitumor Effects of Monoamine Oxidase Inhibitors in Breast Cancer Cells” (BioMed Research International, 2023) one finds IC50 data, which are given here for three compounds.

Broadly, the IC50 is the concentration at which inhibition is half-maximal.

In the case of `COc1cccc2c1C(=O)c1c(O)c3c(c(O)c1C2=O)C[C@@](O)(C(=O)CO)C[C@@H]3O[C@H]1C[C@H](N)[C@H](O)[C@H](C)O1` [Doxorubicin], the IC50 was 2.2 µM in the assay with T-47D and 2 µM in the assay with MDA-MB-231.
The like results for `C#CCN(C)CCCOc1ccc(Cl)cc1Cl` [J19, clorgyline] were, in that order, 157 µM and 163 µM.
The like results for `O=C(c1ccc(OCCN2CCCCC2)cc1)c1c(-c2ccc(O)cc2)sc2cc(O)ccc12` [Raloxifene] were, in that order, 28 µM and 27 µM.
